Results: paper PMC6135396, “Repurposing antimalarial aminoquinolines and related compounds for treatment of retinal neovascularization” (PLoS ONE, 2018)

Tests used:
APJ = biological target: T1, APJ (Homo sapiens, UniProt P35414); experiment: APJ β-arrestin recruitment assay (PathHunter, CHO-K1-APJ); format: cell-based; parameters: β-galactosidase enzyme fragment (enzyme fragment complementation construct); host or cells: CHO-K1 (CHO-K1-APJ, PathHunter)
T1 sequence (P35414 1-380): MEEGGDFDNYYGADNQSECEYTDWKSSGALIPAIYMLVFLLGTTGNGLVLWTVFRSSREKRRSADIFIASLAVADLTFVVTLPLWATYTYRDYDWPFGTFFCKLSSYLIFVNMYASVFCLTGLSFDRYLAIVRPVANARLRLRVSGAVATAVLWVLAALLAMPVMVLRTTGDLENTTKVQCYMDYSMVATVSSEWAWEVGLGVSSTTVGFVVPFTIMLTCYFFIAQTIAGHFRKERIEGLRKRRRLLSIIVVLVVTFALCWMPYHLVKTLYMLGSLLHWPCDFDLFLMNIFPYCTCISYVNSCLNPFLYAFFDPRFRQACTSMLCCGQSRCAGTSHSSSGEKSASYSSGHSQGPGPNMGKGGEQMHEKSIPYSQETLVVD
Method: PathHunter™ GPCR Arrestin and cAMP Hunter™ cell lines (DiscoveRx Corp., Fremont, CA) were used to assay G-protein-dependent signaling and β-arrestin recruitment to APJ. CHO-K1 cells stably expressing APJ (CHO-K1-APJ) or AT1 (CHO-K1-AT1) with β-arrestin/β-galactosidase enzyme fragment complementation constructs were maintained in HAM's F-12 medium (Hyclone, Logan, UT) supplemented with 10% FBS, 1X Penicillin-Streptomycin-Glutamine (Invitrogen; Carlsbad, CA), 300 μg/ml hygromycin (EMD Biosciences, San Diego, CA), and 800 μg/ml Geneticin (Cellgro, Manassas, VA). Primary Human Retinal Microvascular Endothelial Cells (HRECs) were purchased from Cell Systems (Kirkland, WA) and maintained in Complete Classic Medium with CultureBoost-R™ (Cell Systems). Parent CHO-K1 cells were obtained from ATCC and maintained in HAM’s F-12 medium supplemented with 10% FBS, and1X Penicillin-Streptomycin-Glutamine (Invitrogen; Carlsbad, CA). All cells were incubated at 37°C (5% CO2, 95% relative humidity) and maintained at less than 70% to 80% confluence (approximately 75,000 cells/cm^2). Cell heterologously expressing APJ or AT1 were not used after 10 passages. HRECs were not used in any experiments after five passages.
CHO-K1 cells engineered to over-express APJ or AT1, and β-arrestin were removed from flasks using TrypLE Select (1X), no phenol red (Life Technologies, Grand Island, NY), centrifuged, and resuspended in CP2 Reagent (DiscoveRx, Fremont, CA). Cells were counted using a Countess Automated Cell Counter (Invitrogen, Carlsbad, CA) and 5,000 cells/well were plated in a 384-well tissue culture treated microplate (Corning, Corning, NY). All plates were incubated overnight at 37°C, 5% CO2 in a final volume of 25 μl/well. Following incubation, 5 μl of peptides (10-point concentrations) and controls prepared in ligand buffer (1X HBSS, 10 mM HEPES, 0.1% BSA) were added to cells and incubated at 37°C for 1.5 h. Using a Multidrop Combi Reagent Dispenser (Thermo Scientific), 12 μl of Detection Reagent (DiscoveRx) comprised of substrate and co-factors was added to all wells and incubated at room temperature in the dark for 1 h. Chemiluminescent signal was detected on an EnVision Multi-label plate reader (Perkin Elmer) using a counting time of 1 s/well. The robustness of data from each screening plate and run was monitored by Z’ and Signal Window calculation.

Plasma stability, mouse = format: in vitro ADME

In the case of `CCN(CC)Cc1cc(Nc2ccnc3cc(Cl)ccc23)ccc1O` [AQ, amodiaquine], the “Antagonism of Ap13-mediated recruitment of β-arrestin” value (APJ) is reported as “neither AQ nor 1, 3, 4, 5, or 6 antagonized”, the IC50 (APJ; secondary assay, Ap13-mediated β-arrestin recruitment) is reported as over 99 µM and the Plasma stability (Plasma stability, mouse) is reported as 36.1 % remaining at 3 hrs.
